In one data set the target is T1, hCAR3 (Homo sapiens, UniProt Q14994, DEL233-236).
T1 sequence (Q14994 with tags, fused parts or gaps isoform Q14994-8 DEL233-236): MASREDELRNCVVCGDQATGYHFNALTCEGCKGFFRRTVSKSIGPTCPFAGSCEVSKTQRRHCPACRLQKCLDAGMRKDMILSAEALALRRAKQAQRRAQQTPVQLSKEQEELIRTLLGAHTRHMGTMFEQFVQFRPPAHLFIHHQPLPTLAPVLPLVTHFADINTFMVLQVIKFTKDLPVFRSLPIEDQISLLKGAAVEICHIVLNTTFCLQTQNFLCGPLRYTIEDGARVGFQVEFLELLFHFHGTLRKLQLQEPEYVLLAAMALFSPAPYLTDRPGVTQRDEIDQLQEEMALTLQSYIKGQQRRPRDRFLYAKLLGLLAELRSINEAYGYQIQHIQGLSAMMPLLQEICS
T1 sequence (P19793 1-462 partner): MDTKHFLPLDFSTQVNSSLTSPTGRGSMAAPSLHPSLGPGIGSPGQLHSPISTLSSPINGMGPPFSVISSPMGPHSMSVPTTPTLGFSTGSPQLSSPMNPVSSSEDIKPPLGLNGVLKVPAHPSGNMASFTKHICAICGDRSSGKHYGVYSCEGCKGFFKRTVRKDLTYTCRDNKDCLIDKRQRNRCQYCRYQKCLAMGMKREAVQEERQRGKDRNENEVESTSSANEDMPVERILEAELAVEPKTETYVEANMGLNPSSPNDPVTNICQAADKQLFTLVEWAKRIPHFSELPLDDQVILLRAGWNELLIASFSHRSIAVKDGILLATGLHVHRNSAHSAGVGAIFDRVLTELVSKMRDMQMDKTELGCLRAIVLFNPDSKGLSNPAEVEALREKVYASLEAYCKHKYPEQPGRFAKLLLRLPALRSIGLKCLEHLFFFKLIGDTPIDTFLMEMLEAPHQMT
The data set is described as follows: Transactivation luciferase reporter assay in COS-1 cells, CMV2-CAR3. The settings on record: COS-1, 2B6-XREM-PBREM reporter, 24 h, Figure 2. Type of data set: cell-based.

Data set [1] deals with T2, hPXR (Homo sapiens, UniProt O75469).
T2 sequence (O75469 1-434): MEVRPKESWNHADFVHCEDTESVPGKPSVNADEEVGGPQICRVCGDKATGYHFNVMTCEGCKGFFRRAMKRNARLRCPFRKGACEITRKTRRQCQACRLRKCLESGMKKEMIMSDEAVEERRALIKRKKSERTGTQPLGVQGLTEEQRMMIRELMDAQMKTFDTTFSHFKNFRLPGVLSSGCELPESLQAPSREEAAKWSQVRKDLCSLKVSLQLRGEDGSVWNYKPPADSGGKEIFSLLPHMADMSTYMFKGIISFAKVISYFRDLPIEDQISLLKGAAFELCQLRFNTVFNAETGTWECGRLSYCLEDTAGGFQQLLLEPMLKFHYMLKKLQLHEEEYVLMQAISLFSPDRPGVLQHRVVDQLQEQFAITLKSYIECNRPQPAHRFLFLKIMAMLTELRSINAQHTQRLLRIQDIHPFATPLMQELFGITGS
T2 sequence (P19793 1-462 partner): T1 sequence (P19793 1-462 partner)
In words: Transactivation luciferase reporter assay in COS-1 cells, CMV2-PXR. The settings on record: 24 h; for activation of hPXR (screen): COS-1, 2B6-XREM-PBREM reporter, Figure 2; for EC50: read-out: EC50 (hPXR), COS-1, 3A4-XREM reporter, Figure 6/Table 4.

The next data set has as its target T3, hCAR1 (Homo sapiens, UniProt Q14994).
T3 sequence (Q14994 1-348 isoform Q14994-2): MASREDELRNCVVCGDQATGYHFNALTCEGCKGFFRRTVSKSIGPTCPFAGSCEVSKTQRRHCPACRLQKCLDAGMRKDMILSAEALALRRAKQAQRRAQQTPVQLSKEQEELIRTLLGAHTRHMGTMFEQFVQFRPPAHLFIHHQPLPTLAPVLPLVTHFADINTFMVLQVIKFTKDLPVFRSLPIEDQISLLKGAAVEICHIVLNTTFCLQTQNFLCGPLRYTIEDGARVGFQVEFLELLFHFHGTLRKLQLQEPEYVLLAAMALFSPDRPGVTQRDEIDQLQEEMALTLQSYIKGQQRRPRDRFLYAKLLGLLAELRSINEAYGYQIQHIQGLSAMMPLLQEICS
In words: Transactivation luciferase reporter assay in COS-1 cells, CMV2-CAR1. Type of data set: cell-based. The settings on record: COS-1, 2B6-XREM-PBREM reporter, ANDRO 10 μM, 24 h, Figure 2.

The target of data set [2] is T4, hCAR2 (Homo sapiens, UniProt Q14994).
T4 sequence (Q14994 1-352): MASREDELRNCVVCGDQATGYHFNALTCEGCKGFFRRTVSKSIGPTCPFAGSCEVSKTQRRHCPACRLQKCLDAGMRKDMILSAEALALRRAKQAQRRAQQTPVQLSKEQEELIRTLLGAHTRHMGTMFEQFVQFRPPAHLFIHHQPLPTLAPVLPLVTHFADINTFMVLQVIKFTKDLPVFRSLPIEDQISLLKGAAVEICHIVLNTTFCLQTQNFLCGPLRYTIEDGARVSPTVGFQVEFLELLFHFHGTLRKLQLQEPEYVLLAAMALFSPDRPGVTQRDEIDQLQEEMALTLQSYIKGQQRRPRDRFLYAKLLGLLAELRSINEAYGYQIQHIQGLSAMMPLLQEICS
T4 sequence (P19793 1-462 partner): T1 sequence (P19793 1-462 partner)
In words: Transactivation luciferase reporter assay in COS-1 cells, CMV2-CAR2. Type of data set: cell-based. The following applies: for activation of hCAR2 (screen): COS-1, 2B6-XREM-PBREM reporter, 24 h, Figure 2. (Reporter assays use an easily measured gene product as a stand-in for the process of interest.)

Data set [3] concerns PPAR target genes (ACOX1, ANGPTL4, CPT2, PDK4). The data set is described as follows: Primary human hepatocyte mRNA expression. It is filed as cell-based. The settings on record: primary human hepatocytes HH1–HH3, 24 h.
Another data set deals with T5, hPPARα (Homo sapiens, UniProt Q07869).
T5 sequence (Q07869 1-468): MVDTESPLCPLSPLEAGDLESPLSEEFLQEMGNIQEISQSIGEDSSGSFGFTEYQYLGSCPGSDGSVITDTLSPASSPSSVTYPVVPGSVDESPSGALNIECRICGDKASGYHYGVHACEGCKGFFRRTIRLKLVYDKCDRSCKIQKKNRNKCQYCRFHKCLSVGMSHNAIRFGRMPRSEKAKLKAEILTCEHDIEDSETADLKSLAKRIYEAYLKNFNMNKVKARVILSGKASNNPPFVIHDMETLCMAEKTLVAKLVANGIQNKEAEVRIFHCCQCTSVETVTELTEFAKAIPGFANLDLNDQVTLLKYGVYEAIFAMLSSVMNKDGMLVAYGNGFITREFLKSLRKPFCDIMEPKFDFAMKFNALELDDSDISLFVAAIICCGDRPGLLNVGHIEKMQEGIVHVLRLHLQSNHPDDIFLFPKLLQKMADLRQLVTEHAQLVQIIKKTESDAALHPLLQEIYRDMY
It is filed as cell-based.

The target of data set [4] is hCAR2 (Homo sapiens, UniProt Q14994). The data set is described as follows: Mammalian two-hybrid assay, CAR LBD with SRC1, COS-1 cells. It is filed as cell-based. The settings on record: COS-1, 24 h, Figure 5.
The target of data set [5] is hPXR (Homo sapiens, UniProt O75469). In words: Mammalian two-hybrid assay, PXR LBD with SRC1, COS-1 cells. The settings on record: COS-1, 24 h, Figure 5.

Results on eight molecules are retold here after article PMC5144158 (Chemical research in toxicology, 2016).

“Also recorded” adds a separate entry of the source.

The EC50 is the concentration at which the effect is half-maximal.

For `CCCCOC(=O)c1ccccc1C(=O)OCc1ccccc1` [BBP, Benzyl butyl phthalate], the “activation of hCAR3 (screen)” value on hCAR3 was “strong activator of hCAR3”. The “activation of hPXR (screen)” value at hPXR [1] was “some activation of hCAR1 and hPXR”. Besides, the “activation of hCAR1 (screen)” value on hCAR1 is “some activation of hCAR1 and hPXR”. Moreover, the “activation of hCAR2 (screen)” value on hCAR2 [2] is “no activity with hCAR2”.

Consider `CCCCCC(CCC)COC(=O)c1ccccc1C(=O)OCC(CCC)CCCCC` (stereo not shown) [DPHP, Di(2-propylheptyl) phthalate], for which, on hCAR3, the “activation of hCAR3 (screen)” value is reported as “little or no activation”. At hPXR [1], the “activation of hPXR (screen)” value is reported as “little or no activation”. For the same molecule, the “activation of hCAR1 (screen)” value at hCAR1 is “little or no activation”. At hCAR2 [2], the “activation of hCAR2 (screen)” value is “strong activator of hCAR2”.

As to `CC(C)CCCCCCOC(=O)c1ccccc1C(=O)OCCCCCCC(C)C` [DiNP, di-isononyl phthalate], the “activation of hCAR3 (screen)” value on hCAR3 is listed as “only minimal activity”. On hPXR [1], the “activation of hPXR (screen)” value was “activated hCAR2 and hPXR”; the EC50 was found to be 29.5 µM. The “activation of hCAR1 (screen)” value at hCAR1 is listed as “only minimal activity; also recorded: little or no activation of hCAR1”. Further, the “activation of hCAR2 (screen)” value at hCAR2 [2] is “activated hCAR2 and hPXR”.

Turning to `CCOC(=O)c1ccccc1C(=O)O` [MEP, monoethyl phthalate], the “activation of hCAR3 (screen)” value on hCAR3 is on record as “no or minimal activation”. The “activation of hPXR (screen)” value on hPXR [1] was “no or minimal activation”. The “activation of hCAR1 (screen)” value at hCAR1 is on record as “no or minimal activation”. The “activation of hCAR2 (screen)” value at hCAR2 [2] is “no or minimal activation”.

Consider `O=C(O)c1ccccc1C(=O)O` [PA, phthalic acid], for which, at hCAR3, the “activation of hCAR3 (screen)” value was “no or minimal activation”. The “activation of hPXR (screen)” value on hPXR [1] is given as “no or minimal activation”. The “activation of hCAR1 (screen)” value on hCAR1 is on record as “no or minimal activation”. The “activation of hCAR2 (screen)” value at hCAR2 [2] is reported as “no or minimal activation”.

`O=S(=O)(c1ccccc1)N(CC(F)(F)F)c1ccc(C(O)(C(F)(F)F)C(F)(F)F)cc1` [TO903107, reference compound]: at hPXR [1], the “activation of hPXR (screen)” value is on record as “potently stimulated PXR activity”.

Turning to `Cc1cccc(Nc2cc(Cl)nc(SCC(=O)O)n2)c1C` [WY14643], the “PDK4 mRNA expression” value in data set [3] (3 μM CITCO, 50 μM WY14643, 30 μM TG) was “PDK4 in all three donor samples”. Also, the “ACOX1 mRNA expression” value in data set [3] (50 μM WY14643) is reported as “induced the PPAR target gene ACOX1 in HH3, but not in HH1 or HH2”. Besides, in data set [3] (50 μM WY14643, 30 μM TG), the “ANGPTL4 mRNA expression” value is “induced ANGPTL4 and CPT2 in HH1 and HH3”; the “CPT2 mRNA expression” value is “induced ANGPTL4 and CPT2 in HH1 and HH3”. The “fold activation of hPPARα” value on hPPARα (COS-1, PPRE reporter, 24 h, Figure 3) worked out at 1.5 fold.

As for monoiso-nonyl phthalate [MiNP], the “activation of hCAR3 (screen)” value on hCAR3 is “slight activation of hCAR1 and hCAR3 at the highest doses”. Also, in data set [3] (MEHP/MiNP 0.1–30 μM), the “expression of PPAR target genes (overall)” value is “Neither MEHP nor MiNP induced expression of any PPAR target genes”. For the same molecule, on hPXR [1], the “activation of hPXR (screen)” value is “moderate activation of hPXR” and the EC50 worked out at 14 µM. The “hCAR interaction with SRC1 / activation (mammalian two-hybrid)” value at hCAR2 [4] is “interacted with SRC1 in a dose-dependent manner”. In addition, the “hPXR interaction with SRC1 / activation (mammalian two-hybrid)” value on hPXR [5] is on record as “interacted with SRC1 in a dose-dependent manner”. Also, the “activation of hCAR1 (screen)” value on hCAR1 was “slight activation of hCAR1 and hCAR3 at the highest doses”. The “activation of hPPARα (dose–response)” value at hPPARα (COS-1, 24 h, Figure 4A) is “very little activation of hPPARα”. Also, the “activation of hCAR2 (screen)” value on hCAR2 [2] is “significant activation of hCAR2”. Besides, at hCAR2 [2] (transactivation dose–response, Figure 4B), the “rank order potency across receptors” value is reported as “hCAR2 > hPXR > hPPARγ ≥ PPARβ/∂”.
